Measured values: ChEMBL document CHEMBL3797190, “Development of 3,5-Dinitrobenzylsulfanyl-1,3,4-oxadiazoles and Thiadiazoles as Selective Antitubercular Agents Active Against Replicating and Nonreplicating Mycobacterium tuberculosis” (J Med Chem, 2016)
Values after ≈ are worked out from the molar mass of the structure shown. Active and inactive are the calls of the source. The rule behind the calls is not given here.

Experiments:
[1] = tested on: Mycobacterium tuberculosis; assay: Antimycobacterial activity against Mycobacterium tuberculosis H37Ra assessed as growth inhibition at 5 ug/ml preincubated for 1 hr followed by radiolabeling with [14C]-uracil, [14C]-methionine for 24 hrs; type: functional, organism-based
[2] = tested on: Mycobacterium tuberculosis; assay: Inhibition of proteosynthesis in Mycobacterium tuberculosis H37Ra assessed as reduction of [14C]-methionine incorporation at 5 ug/ml preincubated for 1 hr followed by radiolabeling with [14C]-methionine for 24 hrs by scintillation spectrometry; type: functional, organism-based
[3] = tested on: Mycobacterium tuberculosis; assay: Inhibition of RNA biosynthesis in Mycobacterium tuberculosis H37Ra assessed as reduction of [14C]-uracil incorporation at 5 ug/ml preincubated for 1 hr followed by radiolabeling with [14C]-uracil for 24 hrs by scintillation spectrometry; type: functional, organism-based
[4] = tested on: Staphylococcus aureus; assay: Antibacterial activity against methicillin-resistant Staphylococcus aureus H 5996/08 after 24 to 48 hrs by broth microdilution method; type: functional
[5] = tested on: Nakaseomyces glabratus; assay: Antifungal activity against Candida glabrata 20/I after 24 to 48 hrs by broth microdilution method; type: functional
[6] = tested on: Escherichia coli; assay: Antibacterial activity against Escherichia coli ATCC 8739 after 24 to 48 hrs by broth microdilution method; type: functional
[7] = tested on: Staphylococcus epidermidis; assay: Antibacterial activity against Staphylococcus epidermidis H 6966/08 after 24 to 48 hrs by broth microdilution method; type: functional
[8] = tested on: Staphylococcus aureus; assay: Antibacterial activity against Staphylococcus aureus ATCC 6538 after 24 to 48 hrs by broth microdilution method; type: functional
[9] = Cytotoxicity against human HeLa cells assessed as cell viability at 20 uM after 48 hrs by MTS assay; type: cell-based; conditions: read-out: Activity
[10] = Cytotoxicity against MDCK2-MDR1 cells assessed as cell viability after 24 hrs by MTS assay; type: ADME, cell-based; conditions: Canis lupus familiaris, MDCK-II
[11] = tested on: Aspergillus fumigatus; assay: Antifungal activity against Aspergillus fumigatus 231 after 24 to 48 hrs by broth microdilution method; type: functional
[12] = tested on: Pichia kudriavzevii; assay: Antifungal activity against Candida krusei E28 after 24 to 48 hrs by broth microdilution method; type: functional
[13] = tested on: Mycobacterium kansasii; assay: Antimycobacterial activity against Mycobacterium kansasii CNCTC My 6509/96 after 21 days by microdilution method; type: functional; conditions: CNCTC My 6509/96, 504 h
[14] = tested on: Klebsiella pneumoniae; assay: Antibacterial activity against ESBL producing Klebsiella pneumoniae J 14368/08 after 24 to 48 hrs by broth microdilution method; type: functional
[15] = Cytotoxicity against human HuH7 cells assessed as cell viability after 48 hrs by MTS assay; type: cell-based; conditions: Huh-7, 48 h
[16] = tested on: Klebsiella pneumoniae; assay: Antibacterial activity against Klebsiella pneumoniae D 11750/08 after 24 to 48 hrs by broth microdilution method; type: functional
[17] = Cytotoxicity against human HuH7 cells assessed as cell viability at 20 uM after 48 hrs by MTS assay; type: cell-based, Huh-7; conditions: read-out: Activity
[18] = Cytotoxicity against MDCK2-MDR1 cells assessed as cell viability at 20 uM after 24 hrs by MTS assay; type: ADME, cell-based, Canis lupus familiaris, MDCK-II; conditions: dog, read-out: Activity
[19] = tested on: Lichtheimia corymbifera; assay: Antifungal activity against Absidia corymbifera 272 after 24 to 48 hrs by broth microdilution method; type: functional
[20] = tested on: HeLa; assay: Cytotoxicity against human HeLa cells assessed as cell viability after 24 hrs by MTS assay; type: cell-based
[21] = Cytotoxicity against human HuH7 cells assessed as cell viability at 20 uM after 24 hrs by MTS assay; type: cell-based, Huh-7; conditions: read-out: Activity
[22] = tested on: Salmonella typhimurium; assay: Mutagenic activity in Salmonella typhimurium TA100 assessed as reverse mutation at 30 uM by Ames test; type: toxicity, organism-based; conditions: salmonella enterica subsp. enterica serovar typhimurium
[23] = tested on: Salmonella typhimurium; assay: Mutagenic activity in Salmonella typhimurium TA98 assessed as reverse mutation at 30 uM by Ames test; type: toxicity, organism-based; conditions: salmonella enterica subsp. enterica serovar typhimurium
[24] = tested on: Trichophyton mentagrophytes; assay: Antifungal activity against Trichophyton mentagrophytes 445 after 72 to 120 hrs by broth microdilution method; type: functional
[25] = tested on: Candida tropicalis; assay: Antifungal activity against Candida tropicalis 156 after 24 to 48 hrs by broth microdilution method; type: functional
[26] = Cytotoxicity against human HeLa cells assessed as cell viability at 20 uM after 24 hrs by MTS assay; type: cell-based; conditions: read-out: Activity
[27] = Cytotoxicity against human HuH7 cells assessed as cell viability after 24 hrs by MTS assay; type: cell-based; conditions: Huh-7, 24 h
[28] = Cytotoxicity against MDCK2-MDR1 cells assessed as cell viability at 20 uM after 48 hrs by MTS assay; type: ADME, cell-based, Canis lupus familiaris, MDCK-II; conditions: dog, read-out: Activity
[29] = tested on: Trichosporon asahii; assay: Antifungal activity against Trichosporon asahii 1188 after 24 to 48 hrs by broth microdilution method; type: functional
[30] = tested on: Candida albicans; assay: Antifungal activity against Candida albicans ATCC 44859 after 24 to 48 hrs by broth microdilution method; type: functional
[31] = tested on: Pseudomonas aeruginosa; assay: Antibacterial activity against Pseudomonas aeruginosa ATCC 9027 after 24 to 48 hrs by broth microdilution method; type: functional
[32] = tested on: Enterococcus faecalis; assay: Antibacterial activity against Enterococcus faecalis J 14365/08 after 24 to 48 hrs by broth microdilution method; type: functional
[33] = tested on: Mycobacterium tuberculosis; assay: Antimycobacterial activity against Mycobacterium tuberculosis H37Rv after 7 days by HTS assay; type: functional; conditions: 168 h
[34] = tested on: Mycobacterium kansasii; assay: Antimycobacterial activity against Mycobacterium kansasii CNCTC My 235/80 after 7 days by microdilution method; type: functional; conditions: CNCTC My 235/80, 168 h
[35] = tested on: Hepatocyte; assay: Cytotoxicity against primary human hepatocytes assessed as cell viability after 48 hrs by MTS assay; type: cell-based
[36] = tested on: HeLa; assay: Cytotoxicity against human HeLa cells assessed as cell viability after 48 hrs by MTS assay; type: cell-based
[37] = tested on: Mycobacterium avium; assay: Antimycobacterial activity against Mycobacterium avium CNCTC My 330/88 after 14 days by microdilution method; type: functional; conditions: CNCTC My 330/88, 336 h
[38] = tested on: Mycobacterium kansasii; assay: Antimycobacterial activity against Mycobacterium kansasii CNCTC My 235/80 after 21 days by microdilution method; type: functional; conditions: CNCTC My 235/80, 504 h
[39] = tested on: Mycobacterium avium; assay: Antimycobacterial activity against Mycobacterium avium CNCTC My 330/88 after 21 days by microdilution method; type: functional; conditions: CNCTC My 330/88, 504 h
[40] = Cytotoxicity against MDCK2-MDR1 cells assessed as cell viability after 48 hrs by MTS assay; type: ADME, cell-based; conditions: Canis lupus familiaris, MDCK-II
[41] = tested on: Mycobacterium kansasii; assay: Antimycobacterial activity against Mycobacterium kansasii CNCTC My 235/80 after 14 days by microdilution method; type: functional; conditions: CNCTC My 235/80, 336 h
[42] = tested on: Mycobacterium kansasii; assay: Antimycobacterial activity against Mycobacterium kansasii CNCTC My 6509/96 after 7 days by microdilution method; type: functional; conditions: CNCTC My 6509/96, 168 h
[43] = tested on: Mycobacterium tuberculosis; assay: Antimycobacterial activity against Mycobacterium tuberculosis CNCTC My 331/88 after 14 days by microdilution method; type: functional; conditions: CNCTC My 331/88, 336 h
[44] = tested on: Mycobacterium kansasii; assay: Antimycobacterial activity against Mycobacterium kansasii CNCTC My 6509/96 after 14 days by microdilution method; type: functional; conditions: CNCTC My 6509/96, 336 h
[45] = Cytotoxicity against primary human hepatocytes assessed as cell viability at 20 uM after 48 hrs by MTS assay; type: cell-based, Hepatocyte; conditions: read-out: Activity
[46] = tested on: Mycobacterium tuberculosis; assay: Antimycobacterial activity against Mycobacterium tuberculosis CNCTC My 331/88 after 21 days by microdilution method; type: functional; conditions: CNCTC My 331/88, 504 h

Compound | MIC95 [4] | MIC80 [5] | MIC95 [6] | MIC95 [7] | MIC95 [8] | viability at 48 h, 20 µM [9] | IC50 [10] | MIC50 [11] | MIC80 [12] | MIC99 [13] | MIC95 [14] | IC50 [15] | MIC95 [16] | viability at 48 h, 20 µM [17] | viability at 24 h, 20 µM [18] | IC50 [20] | viability at 24 h, 20 µM [21] | viability at 24 h, 20 µM [26] | IC50 [27] | viability at 48 h, 20 µM [28] | other results
NC[C@H]1O[C@H](O[C@H]2[C@H](O)[C@@H](O[C@H]3O[C@H](CO)[C@@H](O)[C@H](N)[C@H]3O)[C@H](N)C[C@@H]2N)[C@H](O)[C@@H](O)[C@@H]1O | – | – | – | – | – | – | – | – | – | – | – | – | – | – | – | – | – | – | – | – | growth inhibition (GI) [1]: Active; inhibition [2]: Active; inhibition [3]: inactive
O=[N+]([O-])c1cc(CSc2nnc(-c3ccccc3)o2)cc([N+](=O)[O-])c1 | > 125 µM | > 125 µM | > 125 µM | > 125 µM | > 125 µM | 33.2% | > 20 µM | > 125 µM | > 125 µM | 2 µM (≈ 0.717 µg/mL) | > 125 µM | > 20 µM | > 125 µM | 73.8% | 72.6% | > 20 µM | 99.3% | 88.3% | > 20 µM | 42.4% | MIC50 [19]: > 125 µM; Activity [22]: Non-toxic; Activity [23]: Toxic; MIC50 [24]: > 125 µM; MIC80 [25]: > 125 µM; MIC80 [29]: > 125 µM; MIC80 [30]: > 125 µM; MIC95 [31]: > 125 µM; MIC95 [32]: > 125 µM
COc1ccc(-c2nnc(SCC(=O)NCCc3ccccc3)o2)cc1 | – | – | – | – | – | – | – | – | – | – | – | – | – | – | – | – | – | – | – | – | IC90 [33]: 0.38 µM
COc1cccc(-c2nnc(SCc3cc([N+](=O)[O-])cc([N+](=O)[O-])c3)s2)c1 | – | – | – | – | – | 17.5% | > 20 µM | – | – | 0.5 µM (≈ 0.202 µg/mL) | – | – | – | 33% | 100% | > 20 µM | 86.3% | 71.2% | > 20 µM | 18.5% | MIC99 [34]: 0.25 µM (≈ 0.101 µg/mL); IC50 [35]: > 20 µM; IC50 [36]: 4 µM; MIC99 [37]: 8 µM (≈ 3.24 µg/mL); MIC99 [38]: 0.5 µM (≈ 0.202 µg/mL); MIC99 [39]: 16 µM (≈ 6.47 µg/mL); IC50 [40]: 6.4 µM; MIC99 [41]: 0.5 µM (≈ 0.202 µg/mL); MIC99 [42]: 0.25 µM (≈ 0.101 µg/mL); MIC99 [43]: ≤ 0.03 µM; Activity [22]: Non-toxic; Activity [23]: Non-toxic; MIC99 [44]: 0.5 µM (≈ 0.202 µg/mL); viability at 48 h, 20 µM [45]: 121%; MIC99 [46]: 0.06 µM (≈ 0.0243 µg/mL)
COc1ccc(-c2nnc(SCc3cc([N+](=O)[O-])cc([N+](=O)[O-])c3)s2)cc1 | > 125 µM | > 125 µM | > 125 µM | > 125 µM | > 125 µM | 27.1% | > 20 µM | > 125 µM | > 125 µM | 1 µM (≈ 0.404 µg/mL) | > 125 µM | > 20 µM | > 125 µM | 84.2% | 101% | > 20 µM | 95.4% | 88% | > 20 µM | 60% | MIC99 [34]: 0.25 µM (≈ 0.101 µg/mL); IC50 [36]: 4.4 µM; MIC99 [37]: 8 µM (≈ 3.24 µg/mL); MIC99 [38]: 1 µM (≈ 0.404 µg/mL); MIC99 [39]: 16 µM (≈ 6.47 µg/mL); IC50 [40]: > 20 µM; MIC99 [41]: 1 µM (≈ 0.404 µg/mL); MIC99 [42]: 0.25 µM (≈ 0.101 µg/mL); MIC99 [43]: 0.125 µM (≈ 0.0506 µg/mL); MIC50 [19]: > 125 µM; MIC50 [24]: > 125 µM; MIC80 [25]: > 125 µM; MIC99 [44]: 1 µM (≈ 0.404 µg/mL); MIC99 [46]: 0.125 µM (≈ 0.0506 µg/mL); MIC80 [29]: > 125 µM; MIC80 [30]: > 125 µM; MIC95 [31]: > 125 µM; MIC95 [32]: > 125 µM
